Results published in patent US20060229347A1, “Treatment of eczemas” (Astion Development A/S, priority 2005, published 2006).
Where a name gives a salt, the structure may show the parent alone.

How the values were obtained:
[1] = test system: oxazolone induced ear inflammation; assay: Oxazolone induced Mouse Ear Oedema Assay; assay type: in vivo, mice; details: for % inhibition of ear swelling: 24 hours; for inhibition of the formation of ear oedema: Example 7, 500 μg/ear dissolved in 96% ethanol
Description: Screening for Anti-inflammatory Effect in the Oxazolone induced Mouse Ear Oedema Assay. […] This screening method is commonly employed for screening and evaluation of anti-inflammatory drugs, in particular with respect to the inflammation seen in contact dermatitis. Betamethasone-17 valerate was used as the positive control. […] Betamethason was administered topically in quantities of 20 μg/ear. Betamethason was applied in the commercial form Celeston valerate® 0.1%. All groups were immunised with 20 μl oxazolone, 1.6% in ethanol 96% (w/v) on the left and the right ear. The ear thickness of all mice on both the left and right side was measured with an electronic measuring gauge. All groups were challenged with 20 μl oxazolone (1.6% in ethanol 96% (w/v)) on the left ear and the right ear. Vehicle (acetone) or test article solutions were administered 20 minutes before and 20 minutes after oxazolone challenge. 24 hours after oxazolone challenge the ear thickness of all mice was measured with an electronic measuring gauge. Mean thickness of the ears and standard deviations were calculated. Ear swelling was calculated as the difference between the ear thickness day 7 and day 8. […] Differences in ear swelling between the vehicle treated group and the other groups were tested for significance employing a non-parametric statistical method of analysis, the Mann-Whitney U test. The required level of significance was p<0.05. […] Both test articles were applied in a dose of 500 μg/ear and dissolved in 96% ethanol. Betamethason, as the positive control was administered topically in quantities of 20 μg/ear.

Phosphodiesterase PDE IV = Phosphodiesterase PDE IV enzyme inhibition assay (MDS Pharma Service No. 154000); assay type: biochemical; details: in comparison to Oxaprozin
Description: Trends Pharmacol Sci 1991 January; 12(1):19-27 and in Cortijo J, Bou J, Beleta J, Cardelus I, Llenas J, Morcillo E et al. Investigation into the role of phosphodiesterase IV in bronchorelaxation, including studies with human bronchus. Br J Pharmacol 1993 February; 108(2):562-8. The inhibitory activity of Phosphodiesterase PDE IV may be determined at MDS Pharma Service using test method number 154000.
(§1) The enzyme assays were conducted by MSD Pharma Services.

[2] = biological target: T1, Protein Tyrosine Kinase, SYK (Homo sapiens, UniProt P43405); assay: Protein Tyrosine Kinase SYK enzyme inhibition assay (MDS Pharma Service No. 155761); assay type: biochemical; details: in comparison to Oxaprozin
T1 construct: purchased MDS Pharma Service (contract assay) 155761
Source text: The term “an inhibitor of Protein tyrosine kinase Syk” refers to any agent that inhibits the catalytic activity of Protein tyrosine kinase Syk in vitro. Such in vitro assays are described in Shichijo M, Yamamoto N, Tsujishita H, Kimata M, Nagai H, Kokubo T. Inhibition of syk activity and degranulation of human mast cells by flavonoids. Biol Pharm Bull 2003 December; 26(12):1685-90 and in Zhang J, Berenstein E, Siraganian R P. Phosphorylation of Tyr342 in the linker region of Syk is critical for Fc epsilon RI signalling in mast cells. Mol Cell Biol 2002 December; 22(23):8144-54. The inhibitory activity of Protein Tyrosine Kinase SYK may be determined at MDS Pharma Service using test method number 155761.
as §1

[3] = biological target: T2, Protein Tyrosine Kinase, ZA70 (ZAP-70) (Homo sapiens, UniProt P43403); assay: Protein Tyrosine Kinase ZA70 (ZAP-70) enzyme inhibition assay (MDS Pharma Service No. 155987); assay type: biochemical; details: in comparison to Oxaprozin
T2 construct: purchased MDS Pharma Service (contract assay) 155987
T2 sequence (P43403 1-619): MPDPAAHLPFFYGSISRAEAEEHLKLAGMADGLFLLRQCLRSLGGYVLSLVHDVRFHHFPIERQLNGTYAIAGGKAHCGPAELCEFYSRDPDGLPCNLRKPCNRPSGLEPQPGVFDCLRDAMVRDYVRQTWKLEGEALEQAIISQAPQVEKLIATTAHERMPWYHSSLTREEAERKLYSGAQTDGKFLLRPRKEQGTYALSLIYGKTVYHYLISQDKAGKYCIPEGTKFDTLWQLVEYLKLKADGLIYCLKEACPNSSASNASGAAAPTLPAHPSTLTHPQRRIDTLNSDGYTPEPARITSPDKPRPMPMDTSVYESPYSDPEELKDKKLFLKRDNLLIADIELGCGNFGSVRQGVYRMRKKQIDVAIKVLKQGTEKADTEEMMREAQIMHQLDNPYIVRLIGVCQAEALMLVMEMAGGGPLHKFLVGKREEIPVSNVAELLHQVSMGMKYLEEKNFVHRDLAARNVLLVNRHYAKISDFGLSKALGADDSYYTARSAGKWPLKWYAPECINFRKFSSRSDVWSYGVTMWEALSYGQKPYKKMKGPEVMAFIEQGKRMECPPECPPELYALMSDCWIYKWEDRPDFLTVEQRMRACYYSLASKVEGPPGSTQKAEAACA
Source text: The term “an inhibitor of Protein tyrosine kinase ZAP-70” refers to any agent that inhibits the catalytic activity of the Protein tyrosine kinase ZAP-70 in vitro as may be determined using a method described in Huckle W R, Dy R C, Earp H S. Calcium-dependent increase in tyrosine kinase activity stimulated by angiotensin II. Proc Natl Acad Sci USA 1992 Sep. 15; 89(18):8837-41 and in Isakov N, Wange R L, Watts J D, Aebersold R, Samelson L E. Purification and characterization of human ZAP-70 protein-tyrosine kinase from a baculovirus expression system. J Biol Chem 1996 Jun. 28; 271(26):15753-61. The inhibitory activity of Protein Tyrosine Kinase ZAP may be determined at MDS Pharma Service using test method number 155987.
as §1

skin = details: guinea pig, in vivo
Description: 17th, 1992, and the test method B.6 of the 96/54 E.E.C Directive.
Albino guinea pigs of Dunkin-Hartley strain were exposed to the test item after an acclimatisation period of at least five days.
The Maximum Non Necrotizing Concentration (M.N.N.C.) was determined by injecting by intradermal route the following concentrations: 2.5%, 1.25%, 0.625%, 0.3125%, 0.1562% and 0.078% diluted in physiological saline solution.
Pre-Maximum Non Irritant Concentration (pre-M.N.I.C.) was determined by application of the test item under an occlusive dressing during 24 hours, at the following concentrations: 2.5%, 1.25%, 0.625%, 0.3125% diluted in physiological saline solution.
Maximum Non Irritant Concentration (M.N.I.C.) was determined by initially establishing an induction phase by intradermal injection with a physiological saline solution and by topical application of distilled water followed by a 18-day rest phase. In the challenge phase where the test item is under occlusive dressing for 24 hours, the test item was applied to the skin of the Albino guinea pigs at the following concentrations: 2.5%, 1.25%, 0.625%, 0.3125% diluted in physiological saline solution.

undamaged skin = assay: Acute dermal irritation; assay type: in vivo; details: monoethanolamine salt 5% by weight in water, 0.5 mL patch; reading time 1 hour
Description: The sample was applied at a dose of 0.5 mL, on an undamaged skin area of the right flank of each animal. The patch was secured in position with a strip of surgical adhesive tape.
On the left flank an untreated area served as the control.
The skin reactions were evaluated after 1 hour and then after 24, 48 and 72 hours following removal of the patch according to the following grading scale:
Erythema (0: No erythema, 1: Slight(barelyperceptible)erythema, 2: Definite erythema, 3: Moderate to severe erythema, 4: Severe erythema (purple) with formation of eschars (deep lesions) preventing erythema from being grading).
Oedema (0: No oedema, 1: Very slight (barely perceptible) oedema, 2: Slight oedema (contour clearly defined), 3: Moderate oedema (thickness), 4: Severe oedema (thickness greater than 1 mm, surface larger than zone of application)

Question: `CCCCC(=O)O[C@]1(C(=O)CO)[C@@H](C)C[C@H]2[C@@H]3CCC4=CC(=O)C=C[C@]4(C)[C@@]3(F)[C@@H](O)C[C@@]21C` [Betamethasone 17-valerate] was tested. Which “% inhibition of ear swelling” value ([1]; 20 μg/ear topical, Celeston valerate 0.1%) did it give?
Answer: 66%

Question: How did the “inhibitory effect on the PDE-IV enzyme” value (Phosphodiesterase PDE IV) turn out when `CCCCOc1ccc(CC(=O)NO)cc1` [Bufexamac] was run?
Answer: exhibits inhibitory effect

Question: And the “inhibitory effect on Protein Tyrosine Kinase SYK” value [2]?
Answer: only exhibits inhibitory effect on the PDE-IV enzyme

Question: What about the “inhibitory effect on Protein Tyrosine Kinase ZAP-70” value [3] of the same molecule?
Answer: only exhibits inhibitory effect on the PDE-IV enzyme

Question: And the “inhibition of the formation of ear oedema” value [1]?
Answer: did not inhibit the formation of ear oedema at all

Question: What does the source list for `O=C(O)CCc1nc(-c2ccccc2)c(-c2ccccc2)o1` [Oxaprozin monoethanolamine salt]?
Answer: % inhibition of ear swelling ([1]; 250 μg/ear topical in acetone, 20 min before and after oxazolone challenge): 53%; % inhibition of ear swelling ([1]; 500 μg/ear topical in acetone, 20 min before and after oxazolone challenge): 77%; % inhibition of ear swelling ([1]; 1000 μg/ear topical in acetone, 20 min before and after oxazolone challenge): 95%; inhibition of ear swelling (conclusion) ([1]; 250-1000 μg/ear): dose dependent and highly significant inhibition of ear swelling; inhibition of ear swelling compared with Betamethasone 17-valerate ([1]; highest dose (1000 μg/ear) vs Betamethasone 17-valerate 20 μg/ear): significantly stronger; skin sensitization (cutaneous reactions attributable to allergy) (skin): not causing sensitization reactions

Question: What does the source list for `O=C(O)CCc1nc(-c2ccccc2)c(-c2ccccc2)o1` [Oxaprozin, 4,5-diphenyl-2-oxazole-propionic acid]?
Answer: inhibition of the formation of ear oedema [1]: statistically significant inhibition of the formation of ear oedema; cutaneous reactions (erythema) (undamaged skin): slight erythema
